Measurements: ChEMBL document CHEMBL1132520, “Antimalarial activity of 3-hydroxyalkyl-2-methylene-propionic acid derivatives” (1999)
Calls of active or inactive are those of the source. No cut-off for these calls is given here.

Tests used:
[1] = tested on: Plasmodium falciparum; assay: In vitro inhibition of Plasmodium falciparum at 5 uM/well dose at 72 hrs in total parasite growth assay; type: functional
[2] = tested on: Plasmodium falciparum; assay: In vitro inhibition of Plasmodium falciparum at 100 uM/well dose at 72 hrs in total parasite growth assay; type: functional
[3] = tested on: Plasmodium falciparum; assay: In vitro inhibition of Plasmodium falciparum at 10 uM/well dose at 72 hrs in total parasite growth assay; type: functional
[4] = tested on: Plasmodium falciparum; assay: In vitro inhibition of Plasmodium falciparum at 2.5 uM/well dose at 72 hrs in total parasite growth assay; type: functional
[5] = tested on: Plasmodium falciparum; assay: In vitro inhibition of Plasmodium falciparum at 0.5 uM/well dose at 72 hrs in total parasite growth assay; type: functional
[6] = tested on: Plasmodium falciparum; assay: In vitro inhibition of Plasmodium falciparum at 25 uM/well dose at 72 hrs in total parasite growth assay; type: functional
[7] = tested on: Plasmodium falciparum; assay: In vitro inhibition of Plasmodium falciparum at 1.0 uM/well dose at 72 hrs in total parasite growth assay; type: functional
[8] = tested on: Plasmodium falciparum; assay: In vitro antimalarial activity for Plasmodium falciparum at 50 uM/well dose at 24 hrs in Schizont maturation assay; type: functional
[9] = tested on: Plasmodium falciparum; assay: In vitro inhibition of Plasmodium falciparum at 20 uM/well dose at 72 hrs in total parasite growth assay; Not determined; type: functional
[10] = tested on: Plasmodium falciparum; assay: In vitro antimalarial activity for Plasmodium falciparum at 100 uM/well dose at 24 hrs in Schizont maturation assay; type: functional
[11] = tested on: Plasmodium falciparum; assay: In vitro antimalarial activity for Plasmodium falciparum at 0.25 uM/well dose at 24 hrs in Schizont maturation assay; type: functional
[12] = tested on: Plasmodium falciparum; assay: In vitro antimalarial activity for Plasmodium falciparum at 5 uM/well dose at 24 hrs in Schizont maturation assay; type: functional
[13] = tested on: Plasmodium falciparum; assay: In vitro antimalarial activity for Plasmodium falciparum at 0.50 uM/well dose at 24 hrs in Schizont maturation assay; type: functional
[14] = tested on: Plasmodium falciparum; assay: In vitro antimalarial activity for Plasmodium falciparum at 1 uM/well dose at 24 hrs in Schizont maturation assay; type: functional
[15] = tested on: Plasmodium falciparum; assay: In vitro antimalarial activity for Plasmodium falciparum at 20 uM/well dose at 24 hrs in Schizont maturation assay; type: functional
[16] = tested on: Plasmodium falciparum; assay: In vitro antimalarial activity for Plasmodium falciparum at 2.5 uM/well dose at 24 hrs in Schizont maturation assay; type: functional
[17] = tested on: Plasmodium falciparum; assay: In vitro antimalarial activity for Plasmodium falciparum at 10 uM/well dose at 24 hrs in Schizont maturation assay; type: functional
[18] = tested on: Plasmodium falciparum; assay: In vitro antimalarial activity for Plasmodium falciparum at 0.10 uM/well dose at 24 hrs in Schizont maturation assay; type: functional
[19] = tested on: Plasmodium falciparum; assay: In vitro inhibition of Plasmodium falciparum at 0.25 uM/well dose at 72 hrs in total parasite growth assay; type: functional
[20] = tested on: Plasmodium falciparum; assay: In vitro inhibition of Plasmodium falciparum at 50 uM/well dose at 72 hrs in total parasite growth assay; type: functional
[21] = tested on: Mus musculus; assay: Antimalarial activity against Plasmodium berghei evaluated in terms of mean survival time for mice (Mus musculus) at a dose of 80 mg/kg; type: functional
[22] = tested on: Mus musculus; assay: Antimalarial activity against Plasmodium berghei evaluated in terms of mean survival time for mice (Mus musculus) at a dose of 40 mg/kg; type: functional
[23] = tested on: Mus musculus; assay: Anti-malarial activity against Plasmodium berghei evaluated in terms of mean survival time for mice (Mus musculus) at a dose of 20 mg/kg; type: functional
[24] = tested on: Mus musculus; assay: In vivo antimalarial activity against Plasmodium berghei in mice (Mus musculus); Inactive; type: functional, organism-based
[25] = tested on: Mus musculus; assay: Antimalarial activity against Plasmodium berghei evaluated in terms of mean survival time for mice (Mus musculus) at a dose of 160 mg/kg; type: functional
[26] = tested on: Plasmodium falciparum; assay: In vitro antimalarial activity for Plasmodium falciparum at 500 uM/well dose at 24 hrs in Schizont maturation assay; type: functional
[27] = tested on: Plasmodium falciparum; assay: In vitro antimalarial activity for chloroquine-resistant Plasmodium falciparum at 0.25 uM/well dose at 24 hrs in Schizont maturation assay; type: functional
[28] = tested on: Plasmodium falciparum; assay: In vitro antimalarial activity for chloroquine-resistant Plasmodium falciparum at 2.5 uM/well dose at 24 hrs in Schizont maturation assay; type: functional
[29] = tested on: Plasmodium falciparum; assay: In vitro antimalarial activity for chloroquine-resistant Plasmodium falciparum at 10 uM/well dose at 24 hrs in Schizont maturation assay; type: functional
[30] = tested on: Plasmodium falciparum; assay: In vitro antimalarial activity for chloroquine-resistant Plasmodium falciparum at 50 uM/well dose at 24 hrs in Schizont maturation assay; type: functional
[31] = tested on: Mus musculus; assay: In vivo anti-malarial activity against Plasmodium berghei in mice (Mus musculus) at a dose of 80 mg/kg; Active; type: functional, organism-based; set-up: dose 80 mg/kg
[32] = tested on: Plasmodium falciparum; assay: In vitro inhibition of Plasmodium falciparum at 20 uM/well dose at 72 hrs in total parasite growth assay; type: functional
[33] = tested on: Mus musculus; assay: In vivo anti-malarial activity against Plasmodium berghei in mice (Mus musculus) at a dose of 160 mg/kg; Active; type: functional, organism-based; set-up: dose 160 mg/kg
[34] = tested on: Plasmodium falciparum; assay: In vitro inhibition of chloroquine-resistant Plasmodium falciparum at 0.25 uM/well dose at 72 hrs in total parasite growth assay; type: functional
[35] = tested on: Plasmodium falciparum; assay: In vitro antimalarial activity for chloroquine-resistant Plasmodium falciparum at 100 uM/well dose at 24 hrs in Schizont maturation assay; type: functional
[36] = tested on: Plasmodium falciparum; assay: In vitro antimalarial activity for chloroquine-resistant Plasmodium falciparum at 0.10 uM/well dose at 24 hrs in Schizont maturation assay; type: functional
[37] = tested on: Plasmodium falciparum; assay: In vitro antimalarial activity for chloroquine-resistant Plasmodium falciparum at 1 uM/well dose at 24 hrs in Schizont maturation assay; type: functional
[38] = tested on: Plasmodium falciparum; assay: In vitro antimalarial activity for chloroquine-resistant Plasmodium falciparum at 5 uM/well dose at 24 hrs in Schizont maturation assay; type: functional
[39] = tested on: Plasmodium falciparum; assay: In vitro inhibition of chloroquine-resistant Plasmodium falciparum at 0.5 uM/well dose at 72 hrs in total parasite growth assay; type: functional
[40] = tested on: Plasmodium falciparum; assay: In vitro antimalarial activity for chloroquine-resistant Plasmodium falciparum at 0.5 uM/well dose at 24 hrs in Schizont maturation assay; type: functional
[41] = tested on: Plasmodium falciparum; assay: In vitro antimalarial activity for chloroquine-resistant Plasmodium falciparum at 20 uM/well dose at 24 hrs in Schizont maturation assay; type: functional
[42] = tested on: Plasmodium falciparum; assay: In vitro inhibition of chloroquine-resistant Plasmodium falciparum at 1.0 uM/well dose at 72 hrs in total parasite growth assay; type: functional

SMILES | PGI [1] | PGI [2] | PGI [3] | PGI [4] | PGI [5] | PGI [6] | PGI [7] | inhibition at 50 µM [8] | inhibition at 100 µM [10] | inhibition at 0.25 µM [11] | inhibition at 5 µM [12] | inhibition at 0.5 µM [13] | inhibition at 1 µM [14] | inhibition at 20 µM [15] | inhibition at 2.5 µM [16] | inhibition at 10 µM [17] | inhibition at 0.1 µM [18] | PGI [19] | PGI [20] | inhibition at 500 µM [26] | further results
C=C(C#N)C(O)c1ccco1 (centres undefined) | 68.6% | 100% | 79% | 40% | 14% | 84% | 31.4% | – | – | – | – | – | – | – | – | – | – | – | – | – | –
C=C(C(=O)OC)C(O)c1cccnc1 (centres undefined) | 92.5% | 100% | 100% | 75% | 25% | – | 50% | 100% | 100% | 5% | 100% | 29% | 43% | 100% | 64% | 100% | 0% | 5% | 100% | – | PGI [9]: 100%
C=C(C#N)C(O)/C=C(\C)CCC=C(C)C (centres undefined) | – | – | – | – | – | – | – | – | – | – | – | – | – | – | – | – | – | – | – | – | Mean survival time [21]: 9.8 days; Mean survival time [22]: 8.6 days; Mean survival time [23]: 7.3 days; Activity [24]: inactive; Mean survival time [25]: 11.6 days
C=C(C(=O)OC)C(O)c1ccc([N+](=O)[O-])cc1 (centres undefined) | – | – | – | – | – | – | – | 52.6% | 81.6% | – | 18.4% | – | 2.6% | – | – | 44.7% | – | – | – | 100% | –
C=C(CCC(C)=O)C(C)=O | 88.6% | 100% | 100% | 65.7% | – | 100% | 8.6% | 100% | 100% | – | 100% | – | 52.6% | – | – | 100% | – | – | – | 100% | –
C=C(C#N)C(O)c1ccc([N+](=O)[O-])cc1 (centres undefined) | 100% | 100% | 100% | 100% | 92% | 100% | 100% | 100% | 100% | 56.4% | 100% | 68% | 75.2% | 100% | 84% | 100% | 41.2% | 83% | 100% | 100% | Mean survival time [21]: 12.8 days; Mean survival time [22]: 11.8 days; inhibition at 0.25 µM [27]: 58%; inhibition at 2.5 µM [28]: 100%; inhibition at 10 µM [29]: 100%; inhibition at 50 µM [30]: 100%; Activity [31]: Active; PGI [32]: 100%; Mean survival time [23]: 9.4 days; Activity [33]: Active; PGI [34]: 73%; inhibition at 100 µM [35]: 100%; inhibition at 0.1 µM [36]: 47.7%; inhibition at 1 µM [37]: 86%; inhibition at 5 µM [38]: 100%; PGI [39]: 82%; inhibition at 0.5 µM [40]: 75%; Mean survival time [25]: 14.4 days; inhibition at 20 µM [41]: 100%; PGI [42]: 94%
